Where “and” joins values, the source holds several entries; their conditions need not be identical. Equal entries are not always repeated. Residues, ends and D or L forms follow the SMILES beside them.
What was measured:
[1] = target: T1, bradykinin receptors on intestinal (ileal longitudinal) smooth muscle (Cavia porcellus, UniProt O70526); assay: Bradykinin antagonist activity on guinea pig ileal longitudinal smooth muscle (Schild analysis); assay type: cell-based; conditions: antagonism of bradykinin-induced contraction, 5 min antagonist exposure; for Kb: read-out: pA2 (converted)
T1 construct: The longitudinal muscle was separated from the underlying circular muscle; from tissue; host or cells: guinea pig ileal longitudinal smooth muscle strips
T1 sequence (O70526 1-372): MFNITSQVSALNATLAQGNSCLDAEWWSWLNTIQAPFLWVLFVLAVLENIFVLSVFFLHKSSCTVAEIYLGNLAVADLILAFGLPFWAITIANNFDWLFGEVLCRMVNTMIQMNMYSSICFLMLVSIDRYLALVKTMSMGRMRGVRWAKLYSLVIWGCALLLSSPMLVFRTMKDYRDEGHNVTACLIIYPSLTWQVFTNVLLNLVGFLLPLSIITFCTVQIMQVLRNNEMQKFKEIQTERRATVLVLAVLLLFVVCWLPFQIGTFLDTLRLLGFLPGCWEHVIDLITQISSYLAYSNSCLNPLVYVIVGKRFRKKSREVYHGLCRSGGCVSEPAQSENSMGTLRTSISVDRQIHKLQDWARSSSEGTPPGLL
Procedure: Determination of Bradykinin Antagonist Activity
Guinea pig intestine was removed and placed in a Petri dish containing Tyrodes solution and cut into 3-4 cm segments. The longitudinal muscle was separated from the underlying circular muscle using a cotton applicator (Paton and Zar, J. Physiol., (1968), 194:13. Muscle strips were connected to isometric force-displacement transducers (Grass or Gould) coupled to a physiograph and placed in tissue baths containing Tyrode's solution at 37° C. Each preparation was suspended under a resting tension of 2 g.
After equilibration of the tissues, appropriate volumes of bradykinin solutions were cumulatively added to the 10 mL tissue baths to increase the concentration of bradykinin in the bath step-by-step without washing out after each single dose. Higher concentrations were added only after the preceding contraction had reached a steady value. […] Antagonism of bradykinin responses in the presence of antagonist were determined by repeating the cumulative addition procedure for bradykinin after the tissue has been exposed to the antagonist for 5 minutes. Three or four different concentrations of antagonist are studied sequentially in the same preparations. Responses were expressed as a percentage of the maximum contraction elicited by bradykinin in the absence of antagonist. pA2 values were calculated by Schild analysis.

bradykinin receptor = target: T2, bradykinin receptor (Cavia porcellus, UniProt O70526); assay: 3H-Bradykinin binding assay, guinea pig terminal ileum homogenate; conditions: competition with 3H-bradykinin (~0.3 nM), guinea pig terminal ileum membranes, 90 min ambient temperature
T2 construct: from tissue; host or cells: guinea pig terminal ileum, washed membrane homogenate
T2 sequence (O70526 1-372): T1 sequence (O70526 1-372)
Procedure: Bradykinin Binding Procedure
Binding of ^3H-Bradykinin was preformed using the method of D. C. Manning, R. Vavrek, J. M. Stewart, and S. H. Synder, J. Pharmacol. Exp. Ther., (1986), 237, 504. The tissues used in the binding assay were terminal ileum from male Hartley guinea pigs (150-350 g). After dissection, tissues were placed in 20 vol of ice-cold buffer A (25 mM TES containing 0.2 g/L of 1,10-phenanthroline adjusted to pH 6.8 with ammonium hydroxide) and homogenized using a Ploytron Tissumizer at setting 6 for 15 sec. The homogenate was centrifuged at 50,000 x g for 10 min, the supernatant discarded, and the pellet resuspended in ice-cold buffer A by homogenization with the Polytron. Each tissue was homogenized and centrifuged three times. The final pellet was resuspended in buffer A containing bovine serum albumin (1 g/L) and Bacitracin (0.14 g/L) to a final volume of 170 mL/g of the original tissue weight. The binding assay consisted of 1 mL in 12×75 mm polypropylene tubes: 50 uL ^3H-bradykinin (20,000 dpm, ˜0.3 nM in the final assay volume), […] displacing drug in buffer A, and 750 uL tissue homogenate. Each tray contained tubes, to which no drug was added to measure maximum binding and tubes to which bradykinin (1 uM final concentration) had been added, to measure […]. Specific binding accounted for 96-98% total binding. Tubes were incubated for 90 min at ambient temperature. The assays were terminated by filtration over Whatman GF/B glass fiber filters that had been pretreated for 2 hours with polyethyleneimine (2 g/L) using a Brandel Tissue Harvester, followed by washing with 4×1 mL aliquots of ice-cold 50 mM Tris, pH 7.4. Filters were dissolved in Ready-Safe Fluor (Beckman) for at least 90 min before quantitation by liquid scintillation spectrometry. Kd values were determined using saturation binding and analysis by EBDA (G. A. MacPherson, J. Pharmacol. Methods, (1985), 213), followed by LIGAND (P. J. Munson, D. Rodbard, Anal. Biochem., (1980), 220). Ki values were determined using competitive analysis followed by EBDA and LIGAND. The following test results were obtained.

[2] = anesthetized rat, intra-aortic vs intravenous administration; cited from earlier work
[3] = cited from earlier work

Molecule | Kb [1] | Ki (bradykinin receptor) | destruction on a single passage through the pulmonary circulation [2] | half life in the systemic circulation [3] | pA2 [1]
CCCO[C@H]1C[C@H](C(=O)N2Cc3ccccc3C[C@H]2C(=O)N[C@@H](CCCNC(=N)N)C(=O)O)N(C(=O)[C@H](CO)NC(=O)[C@H](Cc2cccs2)NC(=O)CNC(=O)[C@@H]2C[C@@H](O)CN2C(=O)[C@@H]2CCCN2C(=O)[C@H](CCCNC(=N)N)NC(=O)[C@H](N)CCCNC(=N)N)C1 [D-Arg-Arg-Pro-4Hyp-Gly-Thi-Ser-(D-4-Hydroxyproline trans propyl ether)-Tic-Arg] | 24.5 nM | 0.59 nM | – | – | –
CO[C@@H]1C[C@H](C(=O)N2Cc3ccccc3C[C@H]2C(=O)N[C@@H](CCCNC(=N)N)C(=O)O)N(C(=O)[C@H](CO)NC(=O)[C@H](Cc2cccs2)NC(=O)CNC(=O)[C@@H]2C[C@@H](O)CN2C(=O)[C@@H]2CCCN2C(=O)[C@H](CCCNC(=N)N)NC(=O)[C@H](N)CCCNC(=N)N)C1 [D-Arg-Arg-Pro-4Hyp-Gly-Thi-Ser-(D-4-hydroxyproline cis methyl ether)-Tic-Arg] | 5750 nM and 6310 nM | 164 ± 20 nM | – | – | –
CCCO[C@@H]1C[C@H](C(=O)N2Cc3ccccc3C[C@H]2C(=O)N[C@@H](CCCNC(=N)N)C(=O)O)N(C(=O)[C@H](CO)NC(=O)[C@H](Cc2cccs2)NC(=O)CNC(=O)[C@@H]2C[C@@H](O)CN2C(=O)[C@@H]2CCCN2C(=O)[C@H](CCCNC(=N)N)NC(=O)[C@H](N)CCCNC(=N)N)C1 [D-Arg-Arg-Pro-4Hyp-Gly-Thi-Ser-(D-4-hydroxyproline cis propyl ether)-Tic-Arg] | 8910 nM and 3160 nM | 172 ± 45 nM | – | – | –
CO[C@H]1C[C@H](C(=O)N2Cc3ccccc3C[C@H]2C(=O)N[C@@H](CCCNC(=N)N)C(=O)O)N(C(=O)[C@H](CO)NC(=O)[C@H](Cc2cccs2)NC(=O)CNC(=O)[C@@H]2C[C@@H](O)CN2C(=O)[C@@H]2CCCN2C(=O)[C@H](CCCNC(=N)N)NC(=O)[C@H](N)CCCNC(=N)N)C1 [D-Arg-Arg-Pro-4Hyp-Gly-Thi-Ser-(D-4-hydroxyproline trans methyl ether)-Tic-Arg] | 186 nM | 1.54 nM | – | – | –
NC(N)=NCCC[C@H](NC(=O)[C@H](Cc1ccccc1)NC(=O)[C@@H]1CCCN1C(=O)[C@H](CO)NC(=O)[C@H](Cc1ccccc1)NC(=O)CNC(=O)[C@@H]1CCCN1C(=O)[C@@H]1CCCN1C(=O)[C@@H](N)CCCN=C(N)N)C(=O)O [bradykinin, Arg Pro Pro Gly Phe Ser Pro Phe Arg] (H-RPPGFSPFR-OH) | – | – | 98-99% | less than 30 seconds | –
D-Arg-Arg-Pro-4Hyp-Gly-Phe-Ser-D-Phe-Phe-Arg [reference compound] | – | – | – | – | 5.9
